Assay type in all cases: functional
Test [1] is described as follows: Cytotoxicity against human breast cancer cells after 48 hrs by sulphorhodamine B assay. As to conditions: Cancer cell lines. A general note: The SRB assay estimates cell density from bound dye.
Test [2] can be described thus: Cytotoxicity against human prostate cancer cells after 48 hrs by sulphorhodamine B assay. The note with it: Cancer cell lines.
Test [3] can be described thus: Cytotoxicity against human ovarian cancer cells after 48 hrs by sulphorhodamine B assay. The note with it: Cancer cell lines.
The nature of test [4]: Cytotoxicity against human renal cancer cells after 48 hrs by sulphorhodamine B assay. The note with it: Cancer cell lines.
A short description of test [5]: Cytotoxicity against human melanoma cells after 48 hrs by sulphorhodamine B assay. The note with it: Melanoma cell.
Test [6] can be described thus: Cytotoxicity against human CNS cancer cells after 48 hrs by sulphorhodamine B assay. As to conditions: Cancer cell lines.
Test [7] in a line: Cytotoxicity against human colon cancer cells after 48 hrs by sulphorhodamine B assay. The note with it: Cancer cell lines.
A short description of test [8]: Cytotoxicity against human non-small cell lung cancer cells after 48 hrs by sulphorhodamine B assay. As to conditions: Cancer cell lines.
The nature of test [9]: Cytotoxicity against human leukemia cells after 48 hrs by sulphorhodamine B assay. As to conditions: Leukemia cell.
[10] abbreviates: read-out: LC50 (the source's name).

Broadly, the GI50 is the concentration that inhibits growth by half. The low end stands for greater sensitivity of the cells, the high end for lower sensitivity of the cells. What is called TGI is the concentration at which net growth stops. Higher therefore signals lower sensitivity of the cells. Regarding `O=c1[nH]cc(F)c(=O)[nH]1` [FLUOROURACIL], the GI50 in test [1] was 76.4 µM; in test [2] it was 22.7 µM; in test [3], 61.4 µM; in test [4], 45.6 µM; in test [5] it was 70.6 µM; in test [7], 8.4 µM. In test [8], this compound showed a concentration for 50% growth inhibition (GI50) of over 100 µM. Also, the TGI in test [1], in [2], in test [3], in test [4], in [5] and in test [6] was over 100 µM throughout. Also, the TGI in test [7], in test [8] and in test [9] was over 100 µM throughout. For the same compound, the CC50 in test [3] (setting [10]), in test [5] (setting [10]) and in test [7] (setting [10]) was over 100 µM throughout.
